From patent publication US11530218B2, “Spiro compounds as inhibitors of KRAS” (Incyte Corporation, priority 2020, dated 2022)

Tested on: KRAS G12C (MIA PaCa-2 cells)
Assay: KRAS_G12C cellular pERK HTRF assay
Format: cell-based, human
Design: G12C_pERK (KRAS_G12C pERK assay IC50): scale not given here
Settings: Homo sapiens, MIA PaCa-2; cells incubated with compound 4 hours; read-out: G12C_pERK (KRAS_G12C pERK assay IC50)
Description: MIA PaCa-2 (KRAS G12C; ATCC® CRL-1420), A427 (KRAS G12D; ATCC® HTB53), HPAF-II (KRAS G12D; ATCC® CRL-1997) and NCI-H838 (KRAS WT; ATCC® CRL-5844) cells are purchased from ATCC and maintained in RPMI 1640 media supplemented with 10% FBS (Gibco/Life Technologies). The cells are plated at 5000 cells per well (8 uL) into Greiner 384-well low volume, flat-bottom, tissue culture treated white plates and incubated overnight at 37° C., 5% CO2. The next morning, test compound stock solutions are diluted in media at 3x the final concentration, and 4 uL are added to the cells. The plate is mixed by gentle rotation for 30 seconds (250 rpm) at room temperature. The cells are incubated with the KRAS G12C and G12D compounds for 4 hours or 2 hours respectively at 37° C., 5% CO2.
4 uL of 4× lysis buffer with blocking reagent (1:25) (Cisbio) are added to each well and plates are rotated gently (300 rpm) for 30 minutes at room temperature. 4 uL per well of Cisbio anti Phospho-ERK 1/2 d2 is mixed with anti Phospho-ERK 1/2 Cryptate (1:1) are added to each well, mixed by rotation and incubated overnight in the dark at room temperature. Plates are read on the Pherastar plate reader at 665 nm and 620 nm wavelengths. IC50 determination is performed by fitting the curve of inhibitor percent inhibition versus the log of the inhibitor concentration using the GraphPad Prism 7 software.

SMILES | IC50 [µM]
C=CC(=O)N1CCC2(CC1)Nc1c(cnc3c(F)c(-c4c(O)cccc4F)c(Cl)cc13)NC2=O [Example 1, 1-Acryloyl-9′-chloro-7′-fluoro-8′-(2-fluoro-6-hydroxyphenyl)-1′,4′-dihydro-3′H-spiro[piperidine-4,2′-pyrazino[2,3-c]quinolin]-3′-one] | 1 to 5

Same assay, conditions: cells incubated with compound 4 hours

SMILES | G12C_pERK (KRAS_G12C pERK assay IC50)
C=CC(=O)N1CCC2(CC1)C(=O)N(C)c1c(OC[C@@H]3CCCN3C)nc3c(F)c(-c4cc(O)cc5ccccc45)c(Cl)cc3c12 (single isomer, unassigned) [Example 16a] | ††

Biological target: KRAS G12D (Homo sapiens, UniProt P01116, G12D)
Sequence (P01116 1-188 isoform P01116-2 G12D): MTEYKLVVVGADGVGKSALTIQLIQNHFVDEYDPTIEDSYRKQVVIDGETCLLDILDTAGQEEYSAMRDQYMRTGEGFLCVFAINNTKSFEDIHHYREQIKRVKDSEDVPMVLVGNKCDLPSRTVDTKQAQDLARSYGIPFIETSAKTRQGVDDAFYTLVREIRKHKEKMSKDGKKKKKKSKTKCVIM
Assay: KRAS G12D GDP-GTP exchange assay (bodipy-GDP/GppNHp, SOS1)
Format: biochemical
Settings: bodipy loaded KRAS G12D 2.5 nM, 4 hours incubation after GppNHp-SOS1; read-out: G12D_exchange (KRAS_G12D exchange assay IC50)
Description: The inhibitor potency of the exemplified compounds was determined in a fluorescence based guanine nucleotide exchange assay, which measures the exchange of bodipy-GDP (fluorescently labeled GDP) for GppNHp (Non-hydrolyzable GTP analog) to generate the active state of KRAS in the presence of SOS1 (guanine nucleotide exchange factor). Inhibitors were serially diluted in DMSO and a volume of 0.1 μL was transferred to the wells of a black low volume 384-well plate. 5 μL/well volume of bodipy-loaded KRAS G12C diluted to 5 nM in assay buffer (25 mM Hepes pH 7.5, 50 mM NaCl, 10 mM MgCl2 and 0.01% Brij-35) was added to the plate and pre-incubated with inhibitor for 2 hours at ambient temperature. Appropriate controls (enzyme with no inhibitor or with a G12C inhibitor (AMG-510)) were included on the plate. The exchange was initiated by the addition of a 5 μL/well volume containing 1 mM GppNHp and 300 nM SOS1 in assay buffer. The 10 μL/well reaction concentration of the bodipy-loaded KRAS G12C, GppNHp, and SOS1 were 2.5 nM, 500 uM, and 150 nM, respectively. The reaction plates were incubated at ambient temperature for 2 hours, a time estimated for complete GDP-GTP exchange in the absence of inhibitor. For the KRAS G12D and G12V mutants, similar guanine nucleotide exchange assays were used with 2.5 nM as final concentration for the bodipy loaded KRAS proteins and with 4 hours and 3 hours incubation after adding GppNHp-SOS1 mixture for G12D and G12V respectively. A cyclic peptide described to selectively bind G12D mutant (Sakamoto et al., BBRC 484.3 (2017), 605-611) or internal compounds with confirmed binding were used as positive controls in the assay plates. Fluorescence intensities were measured on a PheraStar plate reader instrument (BMG Labtech) with excitation at 485 nm and emission at 520 nm.
Either GraphPad prism or XLfit was used to analyze the data. The IC50 values were derived by fitting the data to a four parameter logistic equation producing a sigmoidal dose-response curve with a variable Hill coefficient. Prism equation: Y=Bottom+(Top−Bottom)/(1+10^((Log IC50−X)*Hill slope)); XLfit equation: Y=(A+((B−A)/(1+((X/C)^D)))) where X is the logarithm of inhibitor concentration and Y is the response.

SMILES | IC50 [µM]
Cc1cc2c3c(c(N4CC(N(C)C)C4)nc2c(F)c1-c1cc(O)cc2ccccc12)NC(=O)C31CCCNC1 (single isomer, unassigned) [Example 19b, 4′-(3-(dimethylamino)azetidin-1-yl)-6′-fluoro-7′-(3-hydroxynaphthalen-1-yl)-8′-methylspiro[piperidine-3,1′-pyrrolo[2,3-c]quinolin]-2′(3′H)-one] | 1 to 5
CN(C)C1CN(c2nc3c(F)c(-c4cc(O)cc5ccc(Cl)cc45)c(Cl)cc3c3c2NC(=O)C32CCCNC2)C1 (single isomer, unassigned) [Example 20b, 8′-chloro-7′-(7-chloro-3-hydroxynaphthalen-1-yl)-4′-(3-(dimethylamino)azetidin-1-yl)-6′-fluorospiro[piperidine-3,1′-pyrrolo[2,3-c]quinolin]-2′(3′H)-one] | 1 to 5
CN(C)C1CN(c2nc3c(F)c(-c4cc(O)cc5ccccc45)c(Cl)cc3c3c2NC(=O)C32CC3CC2CN3)C1 (single isomer, unassigned) [Example 21b, 8′-chloro-4′-(3-(dimethylamino)azetidin-1-yl)-6′-fluoro-7′-(3-hydroxynaphthalen-1-yl)-5-azaspiro[bicyclo[2.2.1]heptane-2,1′-pyrrolo[2,3-c]quinolin]-2′(3′H)-one] | 1 to 5
CN(C)C1CN(c2nc3c(F)c(-c4cc(O)cc5ccccc45)c(CCCC#N)cc3c3c2NC(=O)C32CCCNC2)C1 (single isomer, unassigned) [Example 23b, 4-(4′-(3-(dimethylamino)azetidin-1-yl)-6′-fluoro-7′-(3-hydroxynaphthalen-1-yl)-2′-oxo-2′,3′-dihydrospiro[piperidine-3,1′-pyrrolo[2,3-c]quinolin]-8′-yl)butanenitrile] | 0.1 to 1
CN(C)C1CN(c2nc3c(F)c(-c4cc(O)cc5ccccc45)c(CC#N)cc3c3c2NC(=O)C32CCCNC2)C1 (single isomer, unassigned) [Example 24a, 2-(4′-(3-(dimethylamino)azetidin-1-yl)-6′-fluoro-7′-(3-hydroxynaphthalen-1-yl)-2′-oxo-2′,3′-dihydrospiro[piperidine-3,1′-pyrrolo[2,3-c]quinolin]-8′-yl)acetonitrile] | 1 to 5
CN(C)C1CN(c2nc3c(F)c(-c4cc(O)cc5ccccc45)c(CCC#N)cc3c3c2NC(=O)C32CCCNC2)C1 (single isomer, unassigned) [Example 25b, 3-(4′-(3-(dimethylamino)azetidin-1-yl)-6′-fluoro-7′-(3-hydroxynaphthalen-1-yl)-2′-oxo-2′,3′-dihydrospiro[piperidine-3,1′-pyrrolo[2,3-c]quinolin]-8′-yl)propanenitrile] | 1 to 5
CN(C)C1CN(c2nc3c(F)c(-c4cc(O)cc5ccccc45)c(Cc4ccccc4Cl)cc3c3c2NC(=O)C32CCCNC2)C1 (single isomer, unassigned) [Example 26b, 8′-(2-chlorobenzyl)-4′-(3-(dimethylamino)azetidin-1-yl)-6′-fluoro-7′-(3-hydroxynaphthalen-1-yl)spiro[piperidine-3,1′-pyrrolo[2,3-c]quinolin]-2′(3′H)-one] | 1 to 5
CN(C)C1CN(c2nc3c(F)c(-c4cc(O)cc5ccccc45)c(Cc4ccccc4C#N)cc3c3c2NC(=O)C32CCCNC2)C1 (single isomer, unassigned) [Example 27b, 2-((4′-(3-(dimethylamino)azetidin-1-yl)-6′-fluoro-7′-(3-hydroxynaphthalen-1-yl)-2′-oxo-2′,3′-dihydrospiro[piperidine-3,1′-pyrrolo[2,3-c]quinolin]-8′-yl)methyl)benzonitrile] | 1 to 5
CN(C)C1CN(c2nc3c(F)c(-c4cc(O)cc5ccccc45)c(CCCC#N)cc3c3c2NCC32CCCNC2)C1 (single isomer, unassigned) [Example 28b, 4-(4′-(3-(dimethylamino)azetidin-1-yl)-6′-fluoro-7′-(3-hydroxynaphthalen-1-yl)-2′,3′-dihydrospiro[piperidine-3,1′-pyrrolo[2,3-c]quinolin]-8′-yl)butanenitrile] | 1 to 5
CN(C)C1CN(c2nc3c(F)c(-c4cc(O)cc5ccccc45)c(CCCC#N)cc3c3c2NC(=O)C32CCNC2)C1 (single isomer, unassigned) [Example 30b, 4-(4′-(3-(dimethylamino)azetidin-1-yl)-6′-fluoro-7′-(3-hydroxynaphthalen-1-yl)-2′-oxo-2′,3′-dihydrospiro[pyrrolidine-3,1′-pyrrolo[2,3-c]quinolin]-8′-yl)butanenitrile] | 1 to 5
CN(C)C1CN(c2nc3c(F)c(-c4cc(O)cc5ccccc45)c(Cl)cc3c3c2NC(=O)C32CC(N)C2)C1 (centres unmarked) [Example 22, 3-amino-8′-chloro-4′-(3-(dimethylamino)azetidin-1-yl)-6′-fluoro-7′-(3-hydroxynaphthalen-1-yl)spiro[cyclobutane-1,1′-pyrrolo[2,3-c]quinolin]-2′(3′H)-one] | 5 to 50
CN(C)C1CN(c2nc3c(F)c(-c4cc(O)cc5ccccc45)c(CCC#N)cc3c3c2NC(=O)C32CNC2)C1 [Example 29, 3-(4′-(3-(dimethylamino)azetidin-1-yl)-6′-fluoro-7′-(3-hydroxynaphthalen-1-yl)-2′-oxo-2′,3′-dihydrospiro[azetidine-3,1′-pyrrolo[2,3-c]quinolin]-8′-yl)propanenitrile] | 1 to 5

The next lines start with the values.

IC50 [µM] | SMILES
5 to 50 | CN(C)C1CN(c2nc3c(F)c(-c4cc(O)cc5ccccc45)c(CCCC#N)cc3c3c2NC(=O)C32CNCCO2)C1 (single isomer, unassigned) [Example 31b, 4-(4′-(3-(dimethylamino)azetidin-1-yl)-6′-fluoro-7′-(3-hydroxynaphthalen-1-yl)-2′-oxo-2′,3′-dihydrospiro[morpholine-2,1′-pyrrolo[2,3-c]quinolin]-8′-yl)butanenitrile]
1 to 5 | CN1CCC[C@H]1COc1nc2c(F)c(-c3cc(O)cc4ccccc34)c(CCCC#N)cc2c2c1NC(=O)C21CCCNC1 (single isomer, unassigned) [Example 32b]
1 to 5 | CN1C(=O)C2(CCCNC2)c2c1c(OC[C@@H]1CCCN1C)nc1c(F)c(-c3cc(O)cc4ccccc34)c(CCCC#N)cc21 (single isomer, unassigned) [Example 33b]
1 to 5 | CN1CCC[C@H]1COc1nc2c(F)c(-c3cc(O)cc4ccccc34)c(CCCC#N)cc2c2c1N(CCO)C(=O)C21CCCNC1 (single isomer, unassigned) [Example 34b]
1 to 5 | CN1CCC[C@H]1COc1nc2c(F)c(-c3cc(O)cc4ccccc34)c(CCCC#N)cc2c2c1N(CC#N)C(=O)C21CCCNC1 (single isomer, unassigned) [Example 36a]
1 to 5 | CN1CCC[C@H]1COc1nc2c(F)c(-c3cc(O)cc4ccccc34)c(CCCC#N)cc2c2c1N(CC(N)=O)C(=O)C21CCCNC1 (single isomer, unassigned) [Example 37b]
